Measured values published in patent US20090012088A1 (priority 2005, published 2009).
Where two headings read alike, the source gives them in different places.

What was measured:
[1] = system: MPTP-treated C57 Black mice; experiment: MPTP mouse model of PD, striatal monoamine levels; assay type: in vivo
Method: As a prelude to assessment of PIP-1 in a mouse model of PD, the ability of PIP-1 to penetrate the blood-brain-barrier is first assessed. PIP-1 is injected i.p. at a dose of 50 mg/kg, and mice are sacrificed at 1 and 2 h post injection. After sacrifice, to establish the presence of PIP-1 in the brain the striatum was dissected, sonicated in perchloric acid, and centrifuged. The clarified supernatant is analyzed by HPLC. No endogenous compounds interfere with this assay for PIP-1 as no signal is detected in dissected striata from non-treated mice. As shown by FIG. 21A, the striatal penetrance of PIP-1 is at the level of 70 ng/mg of protein. […] Given this blood-brain-barrier penetrance by PIP-1, the compound is assessed in the MPTP mouse model of PD. Mice are given a one-time i.p. injection of PIP-1 followed 30 minutes later by an injection of MPTP (30 mg/kg). PIP-1 is assessed at concentrations of 0 mg/kg, 1 mg/kg, 5 mg/kg, 10 mg/kg, and 50 mg/kg, and five mice are used in each group. After 30 days, the mice are sacrificed and the striatum dissected and analyzed by HPLC to determine the levels of dopamine and various dopamine metabolites. […]

[2] = system: U-937 cells; experiment: Protection against H2O2 treatment of U-937 cells (cell survival); assay type: cell-based; conditions: FIG. 13
Method: We have made multiple derivatives of PIP-1; these compounds are shown below in Table 2 and in FIG. 11 and labeled Structures 1-39. The neuroprotective effects of structures 1-26 were tested in the cellular assay and compared to the neuroprotective effect of PIP-1 (FIG. 13).
PIP-1 and structures 1-26 were screened for protection against H2O2 treatment of U-937 cells FIG. 13.

[3] = system: neuronally differentiated PC-12 cells; experiment: Protection from MPP+ induced toxicity in neuronally differentiated PC-12 cells; assay type: cell-based; conditions: 10 μM MPP+, read-out: EC50 (IC50) for protection from MPP+ induced cell death
Method: In vivo MPTP is metabolized to its active form, the 1-methyl-4-phenylpyridinium ion (MPP^+), and MPP^+ has proven very useful in a variety of cell culture models of PD. To determine the protective effect of PIP-1 on cells subjected to MPP^+ insult, PC-12 (differentiated as above) and SK-N-SH (differentiated with retinoic acid for 12 days) cells are treated with 10 μM MPP^+ and a range of PIP-1 concentrations, and cell death is assessed by propidium iodide staining and flow cytometry. […] As shown in FIGS. 20A and 20B, PIP-1 also protects differentiated PC-12 and SK-N-SH cells from rotenone-induced toxicity as well.
Cell culture conditions: HL-60 and SK-N-SH cells are grown in RPMI 1640 media supplemented with 10% FBS and PC-12 cells are grown in RPMI 1640 media supplemented with 10% HS and 5% FBS. All cell lines are incubated at 37° C. in a 5% CO2, 95% air atmosphere. HL-60 cells are split every two to three days as needed and SK-N-SH cells are split when they reach approximately 90% confluency at a 1:6 ratio. […]
Protection of Rotenone and MPP^+ induced toxicity in PC-12 and SK-N-SH cells: SK-N-SH and PC-12 cells are neuronally differentiated as described above. […] The cells are then washed in PBS and the viability is determined by adding propidium iodide to 1 μg/mL and measuring the fluorescent intensity of each cell by flow cytometry.

## CN(C)c1cnn(-c2ccccc2)c(=O)c1N [PIP-1, 4-Amino-5-dimethylamino-2-phenyl-2H-pyridazin-3-one]
[1]; 50 mg/kg PIP-1 i.p. 30 min before MPTP 30 mg/kg, after 30 days
  Striatal levels of dopamine and dopamine metabolites (DOPAC, HVA) in MPTP-treated mice: very similar to the control mice
[1]; mice, without MPTP
  Effect of PIP-1 by itself on levels of dopamine or dopamine metabolites: does not appear to have any adverse effects
[2]
  Protection of U-937 cells treated with H2O2 (activity compared to PIP-1): activity similar or better than PIP-1
[3]; 72 h
  EC50: 1810 nM
[3]; Rattus norvegicus, PC-12, 72 h
  EC50: ~1800 nM
